# Patent US4835172A, “Novel benzamides, intermediates and process for the preparation and therapeutic use thereof” (Societe D'Etudes Scientifiques et Industrielles de …, priority 1985, dated 1989)
# Where two headings read alike, the source gives them in different places.
# Experiments:
# [1] = target: T1, D2 receptors (Rattus norvegicus, UniProt P61169); assay: displacement of 3H-spiperone, ligand of D2 receptors, in vitro on rat striatum preparations; format: binding; settings: read-out: inhibiting concentration (50), I.C. 50, relative to 3H-spiperone
# T1 construct: in vitro tests on rat striatum preparations; from tissue; host or cells: rat striatum preparations
# Excerpt: (§1) These tests which consisted of studying the displacement of specific ligands of dopamine receptors by compounds of the invention. The compound in Example I was found, for instance, to have an inhibiting concentration (50), I.C.
# [2] = test system: D1 receptors; assay: displacement of 3H-piflutixol, ligand of D1 receptors, in vitro on rat striatum preparations; format: binding
# Excerpt: as §1
# [3] = test system: prolactin; assay: prolactin content in serum after subcutaneous administration in the male rat; format: in vivo
# Method: The blood samples had been taken 10 and 30 minutes after administration of the compound, whereas the same dose of a reference antidopaminergic (Sulpiride) studied under the same conditions, multiplies the amount of basic prolactinaemia by a factor of about 10.
# [4] = test system: reserpine-induced motor depression and ptosis; assay: reserpine model of behavioural depression; format: in vivo, mice or rats
# Method: In view of this activating property of the compounds of the invention, animal models of behavioural depression were used to investigate a possible antidepressive effect. For example, mice pre-treated with reserpine (5 mg/kg) intraperitoneally 18 hours before the test, or rats receiving reserpine in the nucleus accumbens 1 μg/24 h) were tested.
# [5] = acute toxicity in mice; settings: mouse, in vivo
# Method: In the course of this pharmacological research a toxicological study of the most preferred compound was carried out.
# [6] = solubility in water; format: physicochemical
# T1 sequence (P61169 whole entry): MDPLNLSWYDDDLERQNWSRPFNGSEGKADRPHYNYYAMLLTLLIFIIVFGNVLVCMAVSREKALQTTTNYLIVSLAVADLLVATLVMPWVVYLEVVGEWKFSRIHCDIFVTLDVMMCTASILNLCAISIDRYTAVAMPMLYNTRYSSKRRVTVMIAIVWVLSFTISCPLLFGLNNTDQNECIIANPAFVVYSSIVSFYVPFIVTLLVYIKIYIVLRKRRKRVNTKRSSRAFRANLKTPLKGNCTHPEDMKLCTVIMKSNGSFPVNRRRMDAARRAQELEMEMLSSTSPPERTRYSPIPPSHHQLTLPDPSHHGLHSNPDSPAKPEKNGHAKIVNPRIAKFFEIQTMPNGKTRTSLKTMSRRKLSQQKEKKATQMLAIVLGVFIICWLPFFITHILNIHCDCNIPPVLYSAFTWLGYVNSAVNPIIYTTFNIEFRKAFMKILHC
smiles,measurement,setting,value
"CCN(CC)CCNC(=O)c1cc(Cl)c(NC2=NCCN2)cc1OC [Example I, N-[(DIETHYL AMINO) ETHYL] 2-METHOXY 4-[(1-H 4,5-DIHYDRO 2-IMIDAZOLYL) AMINO] 5-CHLORO BENZAMIDE]",IC50,[1],> 100 µM
same,displacement of 3H-piflutixol,[2],no displacement
same,increase in prolactin content in serum,"[3]; 1 mg/kg s.c., eight rats, 10 and 30 minutes after administration",no increase in prolactin content
same,activity compared with imipramine against reserpine,[4]; 0.1 mg/kg s.c. versus imipramine 30 mg/kg i.p.,as active at that dose as 30 mg/kg of imipramine
same,effect on reserpine-induced motor depression and ptosis,"[4]; 0.1 mg/kg s.c., reserpine 5 mg/kg i.p. (mice) or in nucleus accumbens 1 μg/24 h (rats)",counteracts motor depression and ptosis
same,LD50,"[5]; ip, read-out: LD 50 i.p.",37.7 to 40.8 mg/kg
same,LD50,"[5]; iv, read-out: LD 50 i.v.",12.8 to 14.4 mg/kg
same,LD50,"[5]; po, per os, read-out: LD 50 per os",165 to 180 mg/kg
same,LD50,"[5]; sc, read-out: LD 50 s.c.",52 to 54 mg/kg
"COc1cc(NC2=NCCO2)c(Cl)cc1C(=O)NCC1CCCN1CC1CC1 (stereo not shown) [XL, N-(1-CYCLOPROPYLMETHYL 2-PYRROLIDINYLMETHYL) 2-METHOXY 4-[(4,5-DIHYDRO 2-OXAZOLYL) AMINO] 5-CHLORO BENZAMIDE]",solubility,"[6]; monohydrochloride prepared for immediate use, read-out: soluble in water, monohydrochloride",~320 mg/mL
"C=CCOc1cc(NC2=NCCN2)c(Cl)cc1C(=O)NCCN(CC)CC [XXXIII, N-(DIETHYLAMINO ETHYL) 2-ALLYLOXY 4-[(1-H 4,5 DIHYDRO 2-IMIDAZOLYL) AMINO] 5-CHLORO BENZAMIDE]",solubility,"[6]; hydrochloride prepared for immediate use, read-out: soluble in water, hydrochloride",200 mg/mL
same,solubility,"[6]; the product (base), read-out: insoluble in water",10 mg/mL
"CCN1CCCC1CNC(=O)c1cc(S(N)(=O)=O)ccc1OC (stereo not shown) [Sulpiride, reference compound]",factor by which the amount of basic prolactinaemia is multiplied,[3]; same dose (1 mg/kg) and same conditions,about 10
